From patent US10765675B2, “Compositions and methods for treating Ewing family tumors” (priority 2015, dated 2020)
Structures can show the parent of a compound that is named as a salt.

How the values were obtained:
sarcomas = settings: cited from earlier work
3T3 fibroblast cells = settings: same doses as tested on TC-32 and TC-71 cells
Description: (§2) The TC-32 cell line was derived from a newly diagnosed PNET patient and the TC-71 cell line was derived from a tumor recurrent after chemotherapy in a Ewing's sarcoma patient.
(§3) The cells were cultured in DMEM media supplemented with 10% FBS, 1% L-glutamate, 1% sodium pyruvate, 1% penicillin/streptomycin, and 1% non-essential amino acids in a humidified atmosphere at 37° C. and in 5% CO2. The ratio of cells to well surface and media volume was kept constant in all experiments.
(§4) Treated cells were imaged with an IVIS200 system (Xenogen Corporation, Alameda, Calif.) using the bioluminescent imaging function. An average of three kinetic bioluminescent acquisitions was obtained within 5 min Regions of interest were automatically drawn over wells and quantified with Living Image Software version 2.50.1. Data was analyzed based on total photon flux emission minus the background photon flux of blank wells. Three separate experiments were performed, with six replicate wells for each data point.

[1] = metformin 500-1000 mg/day; cited from earlier work
MB231-Bo cancer cells = settings: same doses as tested on TC-32 and TC-71 cells
Description: as §2, §3, §4

TC-32 cells = assay: cells; settings: Homo sapiens, TC-32, 24 h, read-out: EC50 (concentration of drug that inhibits growth of the tumor cells by 50% as compared to vehicle-treated control)
Description: (§1) The combination index (CI) accounts for the dose response of single drugs to determine the combination effect. […] Enzyme Regul. 22:27-55. The equation for calculating CI is as follows: […]

TC-71 cells = assay: cells; settings: Homo sapiens, TC-71, 24 h, read-out: EC50 (concentration of drug that inhibits growth of the tumor cells by 50% as compared to vehicle-treated control)
Description: as §1

[2] = tested on: DNA damage and DNA repair pathway genes in TC-71 cells; settings: 12 h
Description: (§5) Housekeeping genes were included on the array to normalize RNA amounts.

[3] = tested on: DNA damage and DNA repair pathway genes in TC-32 cells; settings: 12 h
Description: as §5

Compound | Side-effects limiting clinical utility (sarcomas; clinical use) | Share of sarcomas that respond to the drug (sarcomas; standard systemic therapy) | Cytotoxicity (3T3 fibroblast cells) | Plasma levels [1] | Plasma levels, molar equivalent [1] | Cytotoxicity (MB231-Bo cancer cells) | EC50 (TC-32 cells) | EC50 (TC-71 cells) | Expression of 11 DNA repair genes (MMS19, LIG4, B2M, RFC1, PARP2, BRCA2, TREX1, XPC, RAD23A, MUTYH, APEX1) [2] | Expression of 9 DNA repair genes (PRKDC, LIG4, MPG, ACTB, NEIL2, MLH1, RPA3, ATXN3, ERCC5) [3]
COc1cccc2c1C(=O)c1c(O)c3c(c(O)c1C2=O)C[C@@](O)(C(=O)CO)C[C@@H]3O[C@H]1C[C@H](N)[C@H](O)[C@H](C)O1 [doxorubicin] | irreversible cardiac toxicity | 20% |  |  |  |  |  |  |  | 
CN(C)C(=N)N=C(N)N [metformin, Metformin hydrochloride] |  |  | did not show any cytotoxicity | about 1.1 mg/L | 7 µM | did not show any cytotoxicity | 11.8 mM | 11.6 mM |  | 
Cc1ccc(NC(=O)c2ccc(CN3CCN(C)CC3)cc2)cc1Nc1nccc(-c2cccnc2)n1 [imatinib, imatinib mesylate] |  |  | did not show any cytotoxicity |  |  | did not show any cytotoxicity |  |  | significantly up-regulated | significantly up-regulated
